Experimental data as given in the Kinase Knowledgebase extract (Sharma et al. 2016).

target: PIK3CG (human) (UniProt P48736); test: Assessment of PIK3CG Kinase Activity
Sequence (P48736 whole entry, looked up): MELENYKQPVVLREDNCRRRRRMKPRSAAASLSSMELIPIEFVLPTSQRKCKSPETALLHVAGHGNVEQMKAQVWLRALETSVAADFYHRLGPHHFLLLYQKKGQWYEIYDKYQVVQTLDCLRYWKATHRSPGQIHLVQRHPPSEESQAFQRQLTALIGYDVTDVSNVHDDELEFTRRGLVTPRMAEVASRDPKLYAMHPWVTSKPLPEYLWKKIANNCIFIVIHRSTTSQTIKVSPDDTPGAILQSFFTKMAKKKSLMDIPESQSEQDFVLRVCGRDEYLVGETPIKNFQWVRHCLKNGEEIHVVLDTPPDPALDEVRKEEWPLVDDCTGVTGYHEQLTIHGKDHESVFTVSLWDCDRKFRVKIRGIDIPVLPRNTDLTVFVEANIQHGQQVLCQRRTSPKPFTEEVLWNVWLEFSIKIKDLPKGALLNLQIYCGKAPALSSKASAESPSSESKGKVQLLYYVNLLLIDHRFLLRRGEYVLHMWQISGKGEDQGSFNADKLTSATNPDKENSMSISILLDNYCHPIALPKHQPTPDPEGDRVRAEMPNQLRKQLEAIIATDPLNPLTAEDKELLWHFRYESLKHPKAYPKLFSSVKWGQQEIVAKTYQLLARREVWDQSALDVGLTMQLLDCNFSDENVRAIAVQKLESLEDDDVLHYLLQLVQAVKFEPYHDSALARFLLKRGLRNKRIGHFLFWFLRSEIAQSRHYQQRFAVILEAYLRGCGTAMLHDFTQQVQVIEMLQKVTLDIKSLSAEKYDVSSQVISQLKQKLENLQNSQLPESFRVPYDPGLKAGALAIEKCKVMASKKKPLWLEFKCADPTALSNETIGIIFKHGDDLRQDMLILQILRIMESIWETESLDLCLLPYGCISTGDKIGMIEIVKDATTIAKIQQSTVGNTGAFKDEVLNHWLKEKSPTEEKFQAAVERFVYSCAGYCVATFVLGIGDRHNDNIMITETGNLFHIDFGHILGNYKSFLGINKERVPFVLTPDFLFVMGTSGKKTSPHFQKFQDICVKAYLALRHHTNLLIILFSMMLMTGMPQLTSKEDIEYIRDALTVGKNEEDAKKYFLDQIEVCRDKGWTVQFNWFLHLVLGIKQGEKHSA

IC50, < 0.8 µM:
CS(=O)(=O)Nc1cccc(CNC(=O)Nc2nc3c(s2)-c2nc(-c4ccccc4Cl)ncc2CC3)c1
CC(C)(C)CC(=O)N[C@H]1CCN(C(=O)Nc2nc3c(s2)-c2nc(-c4ccccc4Cl)ncc2CC3)C1
O=C(NCCc1ccccn1)Nc1nc2c(s1)-c1nc(-c3ccccc3Cl)ncc1CC2
CC(=O)Nc1cccc(CNC(=O)Nc2nc3c(s2)-c2nc(-c4ccccc4Cl)ncc2CC3)c1
Cc1nc2ccccc2n1CC(C)(C)NC(=O)Nc1nc2c(s1)-c1nc(-c3ccccc3Cl)ncc1CC2
CCn1ccc(CNC(=O)Nc2nc3c(s2)-c2nc(-c4ccccc4Cl)ncc2CC3)n1
O=C(Nc1nc2c(s1)-c1nc(-c3ccccc3Cl)ncc1CC2)N1CC[C@H](NS(=O)(=O)N2CCOCC2)C1
CN(C)C(=O)N[C@H]1CCN(C(=O)Nc2nc3c(s2)-c2nc(-c4ccccc4Cl)ncc2CC3)C1
CC(C)(C)OC(=O)N[C@H]1CC[C@H](CNC(=O)Nc2nc3c(s2)-c2nc(-c4ccccc4Cl)ncc2CC3)CC1
O=C(NCC1CCCN(c2ncccn2)C1)Nc1nc2c(s1)-c1nc(-c3ccccc3Cl)ncc1CC2 (configuration not stated)
O=C(NCCc1nc(C2CC2)no1)Nc1nc2c(s1)-c1nc(-c3ccccc3Br)ncc1CC2
NC(=O)N1Cc2ccc(CNC(=O)Nc3nc4c(s3)-c3nc(-c5ccccc5Cl)ncc3CC4)cc2C1
CC(C)CCNC(=O)CCNC(=O)Nc1nc2c(s1)-c1nc(-c3ccccc3Cl)ncc1CC2
Cc1cccc(CNC(=O)Nc2nc3c(s2)-c2nc(-c4ccccc4Cl)ncc2CC3)c1
CC(C)(C)CNC(=O)CCNC(=O)Nc1nc2c(s1)-c1nc(-c3ccccc3Cl)ncc1CC2
CC(C)COC(=O)N[C@H]1CCN(C(=O)Nc2nc3c(s2)-c2nc(-c4ccccc4Cl)ncc2CC3)C1
CC(C)NC(=O)CCNC(=O)Nc1nc2c(s1)-c1nc(-c3ccccc3Cl)ncc1CC2
N#Cc1ccc(CNC(=O)Nc2nc3c(s2)-c2nc(-c4ccccc4Cl)ncc2CC3)s1
O=C(NCc1ccccc1-n1cccn1)Nc1nc2c(s1)-c1nc(-c3ccccc3Cl)ncc1CC2
CC1(C)C(c2ccccc2)CCN1C(=O)Nc1nc2c(s1)-c1nc(-c3ccccc3Cl)ncc1CC2 (configuration not stated)
COc1cccc(CCNC(=O)Nc2nc3c(s2)-c2nc(-c4ccccc4Cl)ncc2CC3)c1OC
CCc1csc(CCNC(=O)Nc2nc3c(s2)-c2nc(-c4ccccc4Cl)ncc2CC3)n1
CC(C)(C)OC(=O)NCc1ccccc1NC(=O)Nc1nc2c(s1)-c1nc(-c3ccccc3Cl)ncc1CC2
Cc1c[nH]c(CCNC(=O)Nc2nc3c(s2)-c2nc(-c4ccccc4Cl)ncc2CC3)n1
O=C(Nc1nc2c(s1)-c1nc(-c3ccccc3Cl)ncc1CC2)N1CCCC(c2ccccc2O)C1 (configuration not stated)
CN1CCN(C(=O)N[C@H]2CCN(C(=O)Nc3nc4c(s3)-c3nc(-c5ccccc5Cl)ncc3CC4)C2)CC1
COCCN(C)C(=O)N[C@H]1CCN(C(=O)Nc2nc3c(s2)-c2nc(-c4ccccc4Cl)ncc2CC3)C1
CCn1cc(CNC(=O)Nc2nc3c(s2)-c2nc(-c4ccccc4Br)ncc2CC3)cn1
CN1CCN(Cc2ccc(NC(=O)Nc3nc4c(s3)-c3nc(-c5ccccc5Cl)ncc3CC4)cc2)CC1
NC(=O)Nc1nc2c(s1)-c1nc(-c3ccccc3Cl)ncc1CC2
O=C(Nc1nc2c(s1)-c1nc(-c3ccccc3Cl)ncc1CC2)N1CCC2(CC1)C(=O)NCN2c1ccccc1
Nc1c(Br)cc(OCC2CCN(C(=O)Nc3nc4c(s3)-c3nc(-c5ccccc5Cl)ncc3CC4)C2)cc1Br (configuration not stated)
CC(C)CNC(=O)Nc1nc2c(s1)-c1nc(-c3ccccc3Cl)ncc1CC2
O=C(NCc1cccc(C(=O)N2CCCC2)c1)Nc1nc2c(s1)-c1nc(-c3ccccc3Cl)ncc1CC2
CCCn1ccc(CNC(=O)Nc2nc3c(s2)-c2nc(-c4ccccc4Cl)ncc2CC3)n1
CC(C)OC(=O)N[C@@H]1CCN(C(=O)Nc2nc3c(s2)-c2nc(-c4ccccc4Cl)ncc2CC3)C1
O=C(NCc1ccccc1N1CCCCC1)Nc1nc2c(s1)-c1nc(-c3ccccc3Cl)ncc1CC2
CCc1nnc(CCNC(=O)Nc2nc3c(s2)-c2nc(-c4ccccc4Br)ncc2CC3)o1
CC(C)CC(=O)N[C@@H]1CCN(C(=O)Nc2nc3c(s2)-c2nc(-c4ccccc4Cl)ncc2CC3)C1
O=C(CCNC(=O)Nc1nc2c(s1)-c1nc(-c3ccccc3Cl)ncc1CC2)NC1CC1
O=C(NCCC(=O)N1CCCC1)Nc1nc2c(s1)-c1nc(-c3ccccc3Cl)ncc1CC2
CC(C)N(C)C(=O)Nc1cccc(CNC(=O)Nc2nc3c(s2)-c2nc(-c4ccccc4Cl)ncc2CC3)c1
CN(Cc1cccc(CNC(=O)Nc2nc3c(s2)-c2nc(-c4ccccc4Cl)ncc2CC3)c1)C(=O)OC(C)(C)C
O=C(NCc1cccc(C(=O)N2CCOCC2)c1)Nc1nc2c(s1)-c1nc(-c3ccccc3Cl)ncc1CC2
NC(=O)Nc1nc2c(s1)-c1nc(-c3cccc(F)c3Cl)ncc1CC2
O=C(Nc1nc2c(s1)-c1nc(-c3ccccc3Cl)ncc1CC2)N1CC[C@H](NC(=O)C(F)(F)F)C1
CC(C)CNC(=O)c1cccc(CNC(=O)Nc2nc3c(s2)-c2nc(-c4ccccc4Cl)ncc2CC3)c1
CNC(=O)Nc1nc2c(s1)-c1nc(C(C)(C)C)ncc1CC2
CC(C)(C)OC(=O)N[C@@H]1CCN(C(=O)Nc2nc3c(s2)-c2nc(-c4ccccc4Cl)ncc2CC3)C1
NC(=O)Nc1nc2c(s1)-c1nc(-c3ccccc3C(F)(F)F)ncc1CC2
Cn1cc(CNC(=O)Nc2nc3c(s2)-c2nc(-c4ccccc4C(F)(F)F)ncc2CC3)cn1
CC(C)(C)OCCNC(=O)Nc1nc2c(s1)-c1nc(-c3ccccc3Cl)ncc1CC2
CC(C)NC(=O)Nc1nc2c(s1)-c1nc(-c3ccccc3Cl)ncc1CC2
COC(=O)CNC(=O)Nc1nc2c(s1)-c1nc(-c3ccccc3Cl)ncc1CC2
CC(C)OC(=O)N[C@H]1CCN(C(=O)Nc2nc3c(s2)-c2nc(-c4ccccc4Cl)ncc2CC3)C1
O=C(NCc1cccc(C(=O)NC2CCCCC2)c1)Nc1nc2c(s1)-c1nc(-c3ccccc3Cl)ncc1CC2
Cn1ccc(CNC(=O)Nc2nc3c(s2)-c2nc(-c4ccccc4Cl)ncc2CC3)n1
